# Assay results as given in article PMC10436550, “Subacute toxicity evaluations of LPM3480392 in rats, a full µ-opioid receptor biased agonist” (Frontiers in Pharmacology, 2023).
# Assay: Body weight, 4-week subacute toxicity study
# Type: in vivo, Sprague Dawley (SD) rats
# Details: male rats
# Description: Body weight was recorded twice a week during the dosing phase and then once a week during the recovery phase. Terminal body weight was recorded before each necropsy for calculating the organ weight ratios.
# [1] = 0.6 mg/kg/day, Prior to 1st dosing
# [2] = 1.2 mg/kg/day, Prior to 1st dosing
# [3] = 2.4 mg/kg/day, Prior to 1st dosing
structure (smiles),measurement,setting,value
Fc1ccc([C@]2(CCNCc3cccc(Cl)c3)CCO[C@]3(CCOC3)C2)nc1 [LPM3480392],Body weight,"0.6 mg/kg/day, Day 6",247.1 ± 9.6 g
same,Body weight change rate,"0.6 mg/kg/day, Day 6",1.31%
same,Body weight,"0.6 mg/kg/day, Day 9",268.8 ± 11.6 g
same,Body weight change rate,"0.6 mg/kg/day, Day 9",2.32%
same,Body weight,"0.6 mg/kg/day, Day 13",292.6 ± 13.5 g
same,Body weight change rate,"0.6 mg/kg/day, Day 13",0.62%
same,Body weight,"0.6 mg/kg/day, Day 16",300.8 ± 12.5 g
same,Body weight change rate,"0.6 mg/kg/day, Day 16",−2.12%
same,Body weight,"0.6 mg/kg/day, Day 20",321.4 ± 15.8 g
same,Body weight change rate,"0.6 mg/kg/day, Day 20",−0.22%
same,Body weight,"0.6 mg/kg/day, Day 23",332.6 ± 17.3 g
same,Body weight change rate,"0.6 mg/kg/day, Day 23",−0.33%
same,Body weight,"0.6 mg/kg/day, Day 27",349.9 ± 20.1 g
same,Body weight change rate,"0.6 mg/kg/day, Day 27",−0.20%
same,Body weight,[1],213.2 ± 11.1 g
same,Body weight change rate,[1],0.66%
same,Body weight,"0.6 mg/kg/day, Recovery day 5",367.7 ± 23.5 g
same,Body weight change rate,"0.6 mg/kg/day, Recovery day 5",−4.86%
same,Body weight,"0.6 mg/kg/day, Recovery day 12",395.5 ± 24.5 g
same,Body weight change rate,"0.6 mg/kg/day, Recovery day 12",−4.63%
same,Body weight,"0.6 mg/kg/day, Recovery day 19",415.6 ± 25.4 g
same,Body weight change rate,"0.6 mg/kg/day, Recovery day 19",−5.29%
same,Body weight,"0.6 mg/kg/day, Recovery day 26",442.1 ± 24.4 g
same,Body weight change rate,"0.6 mg/kg/day, Recovery day 26",−4.22%
same,Body weight,"1.2 mg/kg/day, Day 6",243.6 ± 12.3 g
same,Body weight change rate,"1.2 mg/kg/day, Day 6",−0.12%
same,Body weight,"1.2 mg/kg/day, Day 9",247.3 ± 10.6 g
same,Body weight change rate,"1.2 mg/kg/day, Day 9",−5.86%
same,Body weight,"1.2 mg/kg/day, Day 13",281.5 ± 15.7 g
same,Body weight change rate,"1.2 mg/kg/day, Day 13",−3.20%
same,Body weight,"1.2 mg/kg/day, Day 16",297.1 ± 19.6 g
same,Body weight change rate,"1.2 mg/kg/day, Day 16",−3.32%
same,Body weight,"1.2 mg/kg/day, Day 20",313.4 ± 22.6 g
same,Body weight change rate,"1.2 mg/kg/day, Day 20",−2.70%
same,Body weight,"1.2 mg/kg/day, Day 23",325.9 ± 21.5 g
same,Body weight change rate,"1.2 mg/kg/day, Day 23",−2.34%
same,Body weight,"1.2 mg/kg/day, Day 27",339.3 ± 23.2 g
same,Body weight change rate,"1.2 mg/kg/day, Day 27",−3.22%
same,Body weight,[2],213.2 ± 9.4 g
same,Body weight change rate,[2],0.66%
same,Body weight,"1.2 mg/kg/day, Recovery day 5",361.2 ± 14.2 g
same,Body weight change rate,"1.2 mg/kg/day, Recovery day 5",−6.55%
same,Body weight,"1.2 mg/kg/day, Recovery day 12",388.0 ± 14.5 g
same,Body weight change rate,"1.2 mg/kg/day, Recovery day 12",−6.44%
same,Body weight,"1.2 mg/kg/day, Recovery day 19",416.4 ± 19.3 g
same,Body weight change rate,"1.2 mg/kg/day, Recovery day 19",−5.10%
same,Body weight,"1.2 mg/kg/day, Recovery day 26",444.3 ± 23.9 g
same,Body weight change rate,"1.2 mg/kg/day, Recovery day 26",−3.75%
same,Body weight,"2.4 mg/kg/day, Day 6",234.0 ± 21.8 g
same,Body weight change rate,"2.4 mg/kg/day, Day 6",−4.06%
same,Body weight,"2.4 mg/kg/day, Day 9",249.9 ± 31.9 g
same,Body weight change rate,"2.4 mg/kg/day, Day 9",−4.87%
same,Body weight,"2.4 mg/kg/day, Day 13",272.4 ± 27.9 g
same,Body weight change rate,"2.4 mg/kg/day, Day 13",−6.33%
same,Body weight,"2.4 mg/kg/day, Day 16",281.1 ± 31.2 g
same,Body weight change rate,"2.4 mg/kg/day, Day 16",−8.53%
same,Body weight,"2.4 mg/kg/day, Day 20",297.6 ± 36.8 g
same,Body weight change rate,"2.4 mg/kg/day, Day 20",−7.61%
same,Body weight,"2.4 mg/kg/day, Day 23",299.3 ± 36.1 g
same,Body weight change rate,"2.4 mg/kg/day, Day 23",−10.31%
same,Body weight,"2.4 mg/kg/day, Day 27",315.4 ± 36.4 g
same,Body weight change rate,"2.4 mg/kg/day, Day 27",−10.04%
same,Body weight,[3],213.9 ± 12.9 g
same,Body weight change rate,[3],0.99%
same,Body weight,"2.4 mg/kg/day, Recovery day 5",329.2 ± 48.5 g
same,Body weight change rate,"2.4 mg/kg/day, Recovery day 5",−14.83%
same,Body weight,"2.4 mg/kg/day, Recovery day 12",365.9 ± 50.0 g
same,Body weight change rate,"2.4 mg/kg/day, Recovery day 12",−11.77%
same,Body weight,"2.4 mg/kg/day, Recovery day 19",386.7 ± 51.8 g
same,Body weight change rate,"2.4 mg/kg/day, Recovery day 19",−11.87%
same,Body weight,"2.4 mg/kg/day, Recovery day 26",413.2 ± 56.3 g
same,Body weight change rate,"2.4 mg/kg/day, Recovery day 26",−10.49%
